Here are results for six compounds from patent US8697149B2, “Extracts and compounds from “Tulbaghia violacea” and their use as biological plant protecting agents” (Agrarforum AG, priority 2005, dated 2014).

Where “and” joins values, the source holds several entries; their conditions need not be identical. Equal entries are not always repeated.

The test system of one assay is Fusarium oxysporum. Kind of assay: in vitro mycelial growth inhibition, modified agar dilution method.
Assay [1] deals with covered kernel smut (Sporisorium sorghi). Kind of assay: field trial, sorghum seed treatment against covered kernel smut. The following applies: sorghum seed inoculated with covered kernel smut spores; extract 2.0 g/l, Thiram 0.25% (w/w); field conditions. It is filed as in vivo, Sporisorium sorghi on sorghum.
The test system of assay [2] is loose kernel smut (Sporisorium cruentum). Kind of assay: field trial, sorghum seed treatment against loose kernel smut. It counts as in vivo, Sporisorium cruentum on sorghum. The settings on record: sorghum seed inoculated with loose kernel smut spores; extract 2.0 g/l, Thiram 0.25% (w/w); field conditions.
The mark [3] stands for this setting: below soil part compounds after P-TLC separation.
Setting [4] is: aerial part compounds after P-TLC separation.

Regarding `CSCSSSCSC` [Compound B3.2, 2,4,5,6,8-Pentathianonane], the “% inhibition (mycelial growth of F. oxysporum)” value (shortened to “% inhibition”) with Fusarium oxysporum (setting [3]) came out at 72%.

In the case of Methylthiosulphonate [Compound A7.2], the “% inhibition” value in the assay with Fusarium oxysporum (setting [4]) was 50% and 52%. Same read-out and setting: to `CSCSCSC` [Compound A6.1, 2,4,6-Trithiaheptane] belongs 85%.

Consider `CSCSSCSC` [Compound B2.2, 2,4,5,7-Tetrathiaoctane], for which the “% inhibition” value in the assay on Fusarium oxysporum (setting [3]) was 87%. As to 2,4-Dithiapentane [Compound A7.1], the “% inhibition” value in the assay on Fusarium oxysporum (setting [4]) worked out at 87%. As for `CN(C)C(=S)SSC(=S)N(C)C` [Thiram], the Yield in assay [1] amounted to 4.8 ± 0.6a ton ha^−1; in assay [2], 3.9 ± 1.3a ton ha^−1.
